Data taken from patent US20050182025A1, “Amidinylphenyl compounds and their use as fungicides” (priority 2002, published 2005).

What was measured:
Type in all cases: in vivo
[1] = system: Erysiphe graminis f. sp. tritici; assay: Test A: preventive spray on wheat seedlings, wheat powdery mildew, disease rating; details: wheat seedlings sprayed to run-off, inoculated the following day with Erysiphe graminis f. sp. tritici, rated after 7 days at 20° C.; test concentration not given
From the text: General protocol for preparing test suspensions: Test compounds were first dissolved in acetone in an amount equal to 3% of the final volume and then suspended at the desired concentration (in ppm) in acetone and purified water (50/50 mix) containing 250 ppm of the surfactant Trem® 014 (polyhydric alcohol esters). The resulting test suspensions were then used in the following tests. Spraying a 200 ppm test suspension to the point of run-off on the test plants was the equivalent of a rate of 500 g/ha. The test suspension was sprayed to the point of run-off on wheat seedlings. The following day the seedlings were inoculated with a spore dust of Erysiphe graminis f. sp. tritici, (the causal agent of wheat powdery mildew) and incubated in a growth chamber at 20° C. for 7 days, after which disease ratings were made. Results for Tests A-C are given in Table A. In the table, a rating of 100 indicates 100% disease control and a rating of 0 indicates no disease control (relative to the controls). A dash (-) indicates no test results.

[2] = system: Puccinia recondita; assay: Test B: preventive spray on wheat seedlings, wheat leaf rust, disease rating; details: wheat seedlings sprayed to run-off, inoculated the following day with Puccinia recondita, 24 h saturated atmosphere then 6 days at 20° C.; test concentration not given
From the text: (§1) General protocol for preparing test suspensions: Test compounds were first dissolved in acetone in an amount equal to 3% of the final volume and then suspended at the desired concentration (in ppm) in acetone and purified water (50/50 mix) containing 250 ppm of the surfactant Trem® 014 (polyhydric alcohol esters). The resulting test suspensions were then used in the following tests. Spraying a 200 ppm test suspension to the point of run-off on the test plants was the equivalent of a rate of 500 g/ha. The test suspension was sprayed to the point of run-off on wheat seedlings. The following day the seedlings were inoculated with a spore suspension of Puccinia recondita (the causal agent of wheat leaf rust) and incubated in a saturated atmosphere at 20° C. for 24 h, and then moved to a growth chamber at 20° C. for 6 days, after which disease ratings were made. Results for Tests A-C are given in Table A. In the table, a rating of 100 indicates 100% disease control and a rating of 0 indicates no disease control (relative to the controls). A dash (-) indicates no test results.

[3] = system: Septoria nodorum; assay: Test C: preventive spray on wheat seedlings, Septoria glume blotch, disease rating; details: wheat seedlings sprayed to run-off, inoculated the following day with Septoria nodorum, 48 h saturated atmosphere then 9 days at 20° C.; test concentration not given
From the text: as §1, with “Septoria nodorum” for “Puccinia recondita”, “Septoria glume blotch)” for “wheat leaf rust)”, “48” for “24”, “9” for “6”

| Structure (SMILES) | Test A disease control rating (100 = 100% disease control, 0 = no disease control relative to the controls) [1] | Test B disease control rating (100 = 100% disease control, 0 = no disease control relative to the controls) [2] | Test C disease control rating (100 = 100% disease control, 0 = no disease control relative to the controls) [3] |
| --- | --- | --- | --- |
| CCN(C)C(=S)Nc1cc(C)c(OCCCC(C)(C)C)cc1C [compound 194] | 99% | 100% | 100% |
| CCCCC(CCC)Oc1cc(C)c(N=CN(C)C)cc1C (stereo not drawn) [Compound 29] | 99% | 100% | 58% |
| CCCC(CCC)Oc1cc(C)c(N=CN(C)C)cc1C [Compound 36] | 88% | 100% | 0% |
| Cc1cc(OCCCC(C)(Cl)C(C)C)c(C)cc1N=CN(C)C (stereo not drawn) [Compound 46] | 97% | 100% | 97% |
| CCCCCC(CCCCC)Oc1cc(C)c(N=CN(C)C)cc1C [Compound 30] | 0% | 100% | 0% |
| Cc1cc(NC(=O)NCC(C)(C)C)c(C)cc1N=CN(C)C [compound 190] | 0% | 68% | 0% |
| CCCN(C)C=Nc1cc(Cl)c(OCCC[Si](C)(C)C)cc1C [compound 58] | 100% | 100% | 100% |
| CC(=Nc1cc(C)c(OC(C)CCC(C)C)cc1C)N(C)C (stereo not drawn) [compound 102] | 21% | 95% | 89% |
| Cc1cc(NC(=S)N(C)C)c(C)c(Cl)c1OCCCC(C)C [compound 136] | 95% | 91% | 84% |
| Cc1c(NC(=S)N(C)C)cc(Cl)c(OCCCC(C)(C)C)c1Cl [compound 121] | 49% | 85% | 67% |
| CCN(C)C(=S)Nc1cc(C(C)C)c(OCCC[Si](C)(C)C)cc1C [compound 94] | 99% | 100% | 100% |
| CCCCCOc1cc(C)c(N=CN(C)C)cc1C [Compound 19] | 96% | 100% | 100% |
| Cc1cc(OCC(=O)C(C)(C)C)c(C)cc1N=CN(C)C [Compound 4] | 0% | 92% | 0% |
| CCN(C)C(=S)Nc1cc(Cl)c(OCCCC(C)C)cc1Cl [compound 124] | 98% | 98% | 100% |
| Cc1c(NC(=S)N(C)C)cc(Cl)c(OCCCC(C)C)c1Cl [compound 119] | 0% | 64% | 78% |
| C=C(C)CC(CC)Sc1cc(C)c(N=CN(C)C)cc1C (stereo not drawn) [compound 161] | 72% | 100% | 53% |
| CCCC(CCC(C)C)Nc1cc(C)c(N=CN(C)C)cc1C (stereo not drawn) [compound 148] | 0% | 0% | 47% |
| CCCC(CCC(C)C)Oc1cc(C)c(N=C(C)N(C)C)cc1C (stereo not drawn) [compound 97] | 0% | 45% | 85% |
| CCN(C)C(=S)Nc1cc(Cl)c(OCCC[Si](C)(C)C)cc1Cl [compound 184] | 100% | 99% | 78% |
| CC(C)=CCCOc1cc(C)c(N=CN(C)C)cc1C [Compound 39] | 0% | 100% | 94% |
| CCN(C)C(=S)Nc1cc(C)c(OCCCC(C)C)cc1C [compound 106] | 100% | 100% | 100% |
| CCN(C)C(=Nc1cc(C)c(OCCC[Si](C)(C)C)cc1C)C(=O)OC [compound 131] | 67% | 100% | 96% |
| CCN(C)C=Nc1cc(Cl)c(OCCC[Si](C)(C)C)c(Cl)c1C [compound 182] | 98% | 79% | 67% |
| CCN(CC)C(=S)Nc1cc(C)c(OCCCC(C)(C)C)cc1C [compound 191] | 63% | 99% | 91% |
| CCCCCCCCCCCCOc1cc(C)c(N=CN(C)C)cc1C [Compound 25] | 0% | 90% | 0% |
| CCN(C)C(=S)Nc1cc(C)c(OCCCC(C)(C)C)c(Cl)c1C [compound 139] | 100% | 100% | 99% |
| CCN(CC)C(=S)Nc1cc(Cl)c(OCCC[Si](C)(C)C)cc1C [compound 170] | 99% | 100% | 99% |
